Test results as given in patent US20010007017A1, “PEPTIDES WHICH REACT WITH ANTIBODY RE[…] […] FOR HIV DISEASE PROGRESSION” (priority 1996, published 2001).

Assays:
[1] = tested on: NTM.V Ab in sera of HIV-positive and healthy individuals; assay: ELISA IgG reactivity toward NTM peptide, non-heat-inactivated versus heat-inactivated sera; assay type: binding, human; conditions: compared with the same heat-inactivated sera
Protocol: The antibody binding of individual patient sera (measured by ELISA assay for heat-inactivated sera dilution 1:100) was presented by single point.
(a) Healthy individuals, and (b) HIV-positive patients.
Reactivity of sera collected from the healthy HIV-negative as well as HIV-positive individuals was examined after heat-inactivation at 40° C. and 56° C. The heat treatment of sera was performed in duration of 10, 20 and 30 minutes. Based on the obtained results (FIG. 14), it can be concluded that release of the NTM.V Ab from immune complexes is temperature and time dependent. In these experiments IgG reactivity toward two forms of the NTM peptide were monitored, i.e. uncoupled and BSA-coupled forms. The reactivity patterns of both NTM forms were similar.

[2] = tested on: natural anti-VIP antibodies in sera of HIV-negative asthma patients; conditions: sera of HIV-negative asthma patients with high titres of natural anti-VIP antibodies; cited from earlier work
viral infection = conditions: cited from earlier work

Sequence | reactivity with non-heat-inactivated sera [1] | main end-point titre for hyperimmune sera [2] | reactivity of sera with the peptide [2] | blocking of viral infection (viral infection; in vivo as printed) | effect on lymphocyte function (viral infection; in vivo)
RSANFTDNAKTIIVQLNESVEIN [NTM, HIV-1 gp120-derived natural peptide] | very low reactivity | 1/10000 | strong reactivity |  | 
VVVRSLTFKTNKKT |  |  |  | effectively blocks viral infection | without impairing lymphocyte function
